According to patent US20020146823A1, “Method for promoting hematopoietic and mesenchymal cell proliferation and differentiation” (The University of Southern California, priority 1997, published 2002):
Entries after “also recorded” stand apart in the source; their conditions may differ. No end group written: not given here.

Legend:
[1] = Tests of effectiveness of AII fragments (test not specified)
Text: Particularly preferred embodiments of this class include the following: AII, AIII or AII(2-8), […] [SEQ ID NO:2]; […] AII(1-7), […] {SEQ ID NO:4]; AII(2-7). […] [SEQ ID NO:5]; AII(3-7), […] [SEQ ID NO:6]; AII(5-8), […] [SEQ ID NO:7]; AII(1-6), […] [SEQ ID NO:8]; AII(1-5), […] [SEQ ID NO:9]; AII(1-4), […] [SEQ ID NO:10]; and AII(1-3), […] [SEQ ID NO:11]. Other preferred embodiments include: […] [SEQ ID NO:12] and […] [SEQ ID NO:13]. Still another preferred embodiment encompassed within the scope of the invention is a peptide having the sequence […] [SEQ ID NO:31]. AII(6-8), […] [SEQ ID NO:14] and AII(4-8), […] Particularly preferred is angiotensin III of the formula […] [SEQ ID NO:2]. Other preferred compounds include peptides having the structures […] [SEQ ID NO:17] and […] [SEQ ID NO:18].

[2] = tested on: Rat Peritoneal Macrophages; assay: Phagocytic capability of rat peritoneal macrophages (opsonized yeast ingestion); format: cell-based, Sprague Dawley rats
Procedure: Resident peritoneal macrophages have very little phagocytic activity. Exposure of macrophages to inflammatory or activating agents will increase this macrophage function. Resident peritoneal macrophages were harvested from C57B1/6 mice or Sprague Dawley rats and resuspended at a concentration of 1×10^6 cells/ml in phosphate buffered saline (PBS). Five separate 0.5 ml cell aliquots were placed on a glass coverslip in a 35 mm petri dish. Prior to incubation, either 0.5 ml of PBS, AII, or AII analogues or fragments at between 1-1000 ug/ml final concentration was added to the individual cover slips. The dishes containing the cover slips were then incubated at 37° C. for 4 hours, after which the cover slips were washed 3 to 6 times with PBS. Opsonized yeast particles (Sigma Chemical Co.) (yeast opsonized with adult serum from the same species as that under study) were added to the cover slips and incubated for 2 hours, after which the cover slips were again washed with PBS and inverted onto a glass slide. The number of macrophages that ingested yeast and the number of yeast per macrophage ingested was then determined microscopically. At least 100 macrophages per coverslip were counted. The data from this study are summarized in Tables 3 and 4 and FIGS. 1 and 2.

[3] = tested on: human peripheral blood mononuclear cells (PBMC); assay: Respiratory burst (hydrogen peroxide generation) in human PBMC; format: cell-based; conditions: PBMC; presence and absence of PMA
Procedure: The respiratory burst of leukocytes (macrophages and polymorphonuclear neutrophils) is one component of the mediator system used to kill bacteria. As with phagocytosis, the level of this respiratory burst activity in resident macrophages is low. […] Studies were conducted to assess the effect of in vitro exposure of murine or rat peritoneal macrophages and human peripheral blood mononuclear cells (PBMC) to various concentrations of AII on the capacity to generate hydrogen peroxide via the respiratory burst system. For the human studies, five different donors were examined.
The murine or rat peritoneal cells were harvested by lavage with 5-15 ml of cold PBS with 0.5% bovine serum albumin. The human PBMC were harvested by venipuncture from normal human volunteers and isolated from peripheral blood by Ficoll Hypaque density centrifugation. After isolation, the cells were resuspended at 1×10^6 cells/ml and placed at 100 μl per well into 96 well plates. The cells were incubated with various concentrations of AII or AII analogues and fragments for 4 hours at 37° C. The cells were then preloaded with a fluorescent probe for hydrogen peroxide, 2,7 dichlorofluorescein acetate, which is nonfluorescent in the absence of hydrogen peroxide. Fifteen minutes later, 10 ng/ml of phorbol myristate acetate (+PMA) or PBS (−PMA) was added to stimulate the production of hydrogen peroxide. One hour after stimulation the level of fluorescence produced was measured on a Cytofluor 2350 multiwell fluorometer.

Substance | effectiveness [1] | Number of Macrophages with Yeast (Yeast Number) ≧7 ([2]; peptide 100 μg/ml) | #/Cell ([2]; peptide 1000 μg/ml) | % w/Yeast ([2]; peptide 1000 μg/ml) | Number of Macrophages with Yeast (Yeast Number) 0 ([2]; peptide 1000 μg/ml) | Number of Macrophages with Yeast (Yeast Number) 1-3 ([2]; peptide 1000 μg/ml) | Number of Macrophages with Yeast (Yeast Number) 4-6 ([2]; peptide 1000 μg/ml) | Number of Macrophages with Yeast (Yeast Number) ≧7 ([2]; peptide 1000 μg/ml) | respiratory burst capacity after pre-exposure to analogues and fragments of AII [3] | #/Cell ([2]; peptide 100 μg/ml) | % w/Yeast ([2]; peptide 100 μg/ml) | Number of Macrophages with Yeast (Yeast Number) 0 ([2]; peptide 100 μg/ml) | Number of Macrophages with Yeast (Yeast Number) 1-3 ([2]; peptide 100 μg/ml) | Number of Macrophages with Yeast (Yeast Number) 4-6 ([2]; peptide 100 μg/ml)
His-Pro-Phe [AII(6-8)] | not to be effective |  |  |  |  |  |  |  |  |  |  |  |  | 
Tyr-Ile-His-Pro-Phe (YIHPF; printed: Tyr-Ile-His-Pro-Phe) [AII(4-8)] | not to be effective; also recorded: ineffective in repeated tests |  |  |  |  |  |  |  |  |  |  |  |  | 
Asp-Arg-Val-Tyr-Ile-His-Pro-Ile [GSD 28] |  | 0 | 0.02 | 1.0% | 100 | 1 | 0 | 0 | an increase in the respiratory burst capacity was observed |  |  |  |  | 
Asp-Arg-Val-Tyr-Ile-His-Pro (DRVYIHP; printed: Asp-Arg-Val-Tyr-Ile-His-Pro) [AII(1-7)] |  | 0 | 0.85 | 30.8% | 90 | 30 | 10 | 0 | an increase in the respiratory burst capacity was observed | 0.53 | 20.6% | 100 | 21 | 5
DRPYIHPF [GSD 24B] |  | 0 |  |  | 100 |  |  | 0 | an increase in the respiratory burst capacity was observed |  |  |  |  | 
RVYAHPF [GSD 22A] |  | 0 |  |  | 100 |  |  | 0 | an increase in the respiratory burst capacity was observed |  |  |  |  | 
